Laboratory results taken from patent publication US5817679A, “7-Azabicyclo[2.2.1]-heptane and -heptene derivatives as cholinergic receptor ligands” (priority 1994, dated 1998).
pIC50: −log10 of the molar value.

Experiments:
[1] = Tail-flick assay in mice and rats (antinociception); format: in vivo; conditions: for Tail-Flick Assay ED50 % Effect After 5 min. / Tail-Flick Assay ED50 % Effect After 60 min.: (mg/kg)
Procedure: Tail-Flick Assay in Mice and Rats
Female CD-1 mice (20-25 g, Charles River Labs) and male CD rats (300-400 g, Charles River Labs) were housed in groups of two and five, respectively. Animals were given food and water ad libitum. Most studies were performed using groups of 5 animals per treatment unless otherwise noted.
Antinociceptive effects (i.e., analgesia) of test compounds in mice and rats were measured by the tail-flick test using a tail-flick analgesia meter (EMDIE Instrument Co.). A maximum latency of 10 sec was imposed if no response occurred within that time. Antinociceptive activity, measured as % MPE, was calculated as [(test-control)/(10-control)×100)].
Duration of compound and (-)-nicotine-induced antinociception was assessed in mice by measuring antinociception at 2, 5, 10, 20 min after compound (20 μg/kg, s.c.) or nicotine (5 mg/kg, s.c.).
Mice (7/group) or rats were pretreated i.v. (0.9% saline or antagonist, mecamylamine, hexamethonium, atropine, naloxone or yohimbine) 10 minutes before administration of compound or nicotine at different doses. A control response (1.5-4 sec) was determined for each animal before treatment and test latencies were assessed at 5 minutes after compound administration (5 ml/kg, s.c.) or 2 min after nicotine (5 ml/kg, s.c.).

[2] = Analgesic activity, Straub-Tail assay (Table 5); format: in vivo; conditions: for ED50: Straub-Tail assay
Text: A wide variety of biological assays have been used to evaluate the ability of a compound to act as an analgesic. Any of these known assays can be used to evaluate the analgesic ability of the compounds disclosed herein. The Straub-tail reaction, which is characteristic of opiate alkaloids, has been used as an assay for opiate agonists and antagonists. The assay is described in detail in Br. J. of Pharmacol. 1969, 36, 225. Another accepted assay for analgesic activity is the hot plate analgesia assay, described in J. of Pharmacol. Exp. Therap. 1953, 107, 385. An assay for the evaluation of the ability of a compound to bind to an opiate receptor is described in Mol. Pharmacol. 1974, 10, 868.
Evaluation of Analgesic Activity
Table 5 provides the analgesic activity measured as ED50 (μg/Kg) for selected compounds disclosed herein, as determined using the Straub-Tail assay, as describe by J. Daly et al. J. Am. […] Chem. Soc. 1992, 114, 3475; T. Li, et al. Bioorganic and Medicinal Chemistry Letters 1993, 3, 2759.

[3] = molecular target: T1, nicotinic cholinergic receptor (Rattus norvegicus, UniProt P09483+P12390); test: Competition with [3H](-)-cytisine for binding to rat cortex (brain) receptors (Tables 7, 8); conditions: Table 8, [3H](-)-cytisine, rat brain cortex membranes; read-out: Nicotine Receptor IC50
T1 construct: A membrane fraction from rat brain cortex; tissue Harlan Laboratories; host or cells: rat brain cortex membranes
Text: Competition with Cytisine for Binding to Rat Cortex (Brain) Receptors
[^3 H](-)-Cytisine is a nicotinic cholinergic receptor ligand that binds with high affinity to the a4b2 subtype receptor, the major subtype in rodent brain accounting for >90% of (-)-nicotine binding sites (Flores, et al., 1992; Whiting, et al., 1992). This nicotinic receptor subtype is most sensitive to (-)-nicotine compared to other receptor subtypes (Connolly, et al., 1992). Compounds that compete with cytisine for the nicotinic cholineric receptor are considered nicotine receptor agonists.
A membrane fraction from rat brain cortex (Harlan Laboratories) was prepared using an adaptation of an established method (Pabreza, et al., 1991). Compound and [^3 H]-(-)-cytisine (New England Nuclear, 42 Ci/mmol) were mixed before addition of membrane (0.5 mg protein) and incubated in glass tubes for 75 minutes on ice; total assay volume was 0.24 ml. Parallel assays to determine nonspecific binding were incubated in the presence of 10 uM (-)-nicotine (Sigma). Bound radioactivity was isolated by vacuum filtration onto glass microfiber filters (Whatman, GF-B) using millipore tubs, followed by 3×4 ml buffer wash. Filters were prerinsed with 0.5% polyethyleneimine prior to sample filtration to reduce nonspecific binding. Bound radioactivity was quantitated by scintillation counting.

[4] = Analgesic activity, Straub-Tail assay (Table 5); format: in vivo
[5] = molecular target: T2, acetylcholine nicotinic receptor (Rattus norvegicus, UniProt P09483+P12390); test: Nicotinic receptor binding, [3H]-NMCI radioligand, rat cortex (Table 6)
T2 construct: rat cortex as the tissue substrate; from tissue; host or cells: rat cortex
Procedure: Evaluation of Nicotinic Receptor Binding Activity
7-Aza-bicyclo[2.2.1]-heptanes and -heptenes were evaluated for their ability to bind to the acetylcholine nicotinic receptor using a standard binding assay, e.g. X. Zhang and A. Nordberg, Arch. Pharmacol., 348, 28 (1993); R. E. Middleton and J. B. Cohen, Biochemistry, 30, 6987 (1991), with nicotine sulfate as the reference compound, rat cortex as the tissue substrate, and a [^3 H]-NMCI radioligand.

[6] = tested on: nicotinic cholinergic receptor; conditions: in words; cited from earlier work
[7] = opiate antagonist naloxone; cited from earlier work
opiate receptors = conditions: in words; cited from earlier work
a4b2 subtype receptor = conditions: in words; cited from earlier work
[8] = Straub-Tail assay, read-out: ED50

Cc1nnc(C2CC3CCC2N3C)o1 (stereo not shown) [drawing 61]
Tail-Flick Assay ED50 % Effect After 5 min. [1]: 6.7% | Tail-Flick Assay ED50 % Effect After 60 min. [1]: 24.6%

Clc1ccc([C@@H]2C[C@H]3CC[C@@H]2N3)cn1 [d-epibatidine]
ED50 [2]: > 0.1 mg/kg

c1ccc2nc(C3CC4CCC3N4)ccc2c1 (stereo not shown)
pIC50 [3]: 8.15

N=CN1[C@H]2CC[C@@H]1[C@@H](c1ccc(Cl)nc1)C2 (relative stereo)
effect in Straub-Tail assay ([2]; @ 100 (μg/Kg per column head)): 99%

Cc1noc(C2CC3CCC2N3C)n1 (stereo not shown)
ED50 ([1]; Mus musculus, sc, Table 8): 0.23 mg/kg

c1cncc(C2CC3CCC2N3)c1 (stereo not shown) [drawing 40]
ED50 [4, 8]: 10 mg/kg

N=CN1C2CCC1C(c1ccc(Cl)nc1)C2 (stereo not shown)
Inhibition % ([5]; testing level 10^-7 M): 104%

Clc1ccc([C@H]2C[C@@H]3CC[C@H]2N3CCc2ccccc2)cn1 (relative stereo)
ED50 [4, 8]: < 1 mg/kg

Clc1ccc([C@H]2C[C@@H]3CC[C@H]2N3CC2CC2)cn1 (relative stereo)
effect in Straub-Tail assay ([2]; @ 1000 μg/Kg): 100%

CN1[C@H]2CC[C@@H]1[C@@H](c1ccc(Cl)nc1)C2 (relative stereo)
ED50 [4, 8]: < 0.01 mg/kg

COc1ccc([C@H]2C[C@@H]3CC[C@H]2N3)cn1 (relative stereo)
ED50 [4, 8]: 0.75 mg/kg

CC(C)(C)Oc1ccc([C@H]2C[C@@H]3CC[C@H]2N3)cn1 (relative stereo)
ED50 [4, 8]: ~1 mg/kg

Clc1ccc([C@H]2C[C@@H]3CC[C@H]2N3)cn1 (relative stereo) [drawing 50]
ED50 [2]: 0.01 mg/kg

Cc1cc(C2CC3CCC2N3C)on1 (stereo not shown)
pIC50 [3]: 7.62

Fc1ccc([C@H]2C[C@@H]3CC[C@H]2N3)cn1 (relative stereo)
ED50 [4, 8]: ~0.05 mg/kg

Clc1ccc([C@H]2C[C@@H]3CC[C@H]2N3)cn1 (relative stereo) [epibatidine, exo-2-(2-chloro-5-pyridyl)-7-azabicyclo[2.2.1]heptane]
nicotinic cholinergic receptor activity [6]: nicotinic cholinergic receptor agonist | effect of naloxone on Straub-tail response [7]: not reversed by the opiate antagonist naloxone | affinity for opiate receptors (opiate receptors): negligible affinity

ClCCN1[C@H]2CC[C@@H]1[C@@H](c1ccc(Cl)nc1)C2 (relative stereo)
ED50 [4]: ~0.1 mg/kg

O=c1cccc2n1C[C@@H]1CNC[C@H]2C1 [[^3 H](-)-Cytisine]
affinity for a4b2 subtype receptor (a4b2 subtype receptor): high affinity

c1cncc([C@H]2C[C@@H]3CC[C@H]2N3)c1 (relative stereo)
ED50 [4, 8]: 0.25 mg/kg

C[N+]1(C)[C@H]2CC[C@@H]1[C@@H](c1ccc(Cl)nc1)C2 (relative stereo)
ED50 [4, 8]: 0.1 to 0.2 mg/kg

C[N+]1(C)C2CCC1C(c1ccc(Cl)nc1)C2 (stereo not shown)
Inhibition % ([5]; testing level 10^-5 M): 104% | Inhibition % ([5]; testing level 10^-7 M): 100%

Cc1cc(C2CC3CCC2N3)on1 (stereo not shown)
pIC50 [3]: 6.20

N=CN1C2CCC1C(c1cccnc1)C2 (stereo not shown)
Inhibition % ([5]; testing level 10^-7 M): 103.9% | Inhibition % ([5]; testing level 10^-8 M): 71.3%

CN1C2CCC1C(c1ccc3ccccc3n1)C2 (stereo not shown)
pIC50 [3]: 7.11

Cc1nnc(C2CC3CCC2N3C)o1 (stereo not shown) [drawing 60]
Tail-Flick Assay ED50 % Effect After 5 min. [1]: -2.9% | Tail-Flick Assay ED50 % Effect After 60 min. [1]: -3.6%

c1cncc(C2CC3CCC2N3)c1 (stereo not shown) [drawing 55]
Inhibition % ([5]; testing level 10^-5 M): 104% | Inhibition % ([5]; testing level 10^-9 M): 103%

Clc1ccc([C@H]2C[C@@H]3C=C[C@H]2N3)cn1 (relative stereo)
ED50 [4, 8]: < 1 mg/kg
